Laboratory results taken from US11340216B2, “Methods and compositions for the positive selection of protein destabilizers” (Dana-Farber Cancer Institute, Inc., priority 2016, dated 2022).

Assays:
[1] = tested on: EV-GFP / dCK-Tomato cell mixture; assay: Cell mixing (bystander effect) assay, EV-GFP cells with dCK-Tomato cells, flow cytometry; format: cell-based; conditions: 100 μM BVdU, 100,000 cells/well, start 8% EV-GFP
From the text: The scheme depicted in FIG. 14 generally describes the bystander effect assay in the context of dCK positive selection systems. Cells expressing dCK and tomato fluorescent protein (Td) are mixed with cells having empty vector (EV) and green fluorescent protein (GFP). When cultured with BVdU, cells expressing dCK are expected to convert the nucleotide analog into a product that elicits cytotoxicity, resulting in outgrowth of resistant cells (EV-GFP) as measured by relative GFP/Td fluorescence in the absence of significant bystander killing.
The effects of cell density in cell mixture experiments were examined. EV-GFP cells were mixed together with dCK-Tomato cells in a ratio of 1:9, and the resulting mixture of cells was plated in 6 well plates at 500,000 cells/well, 250,000 cells/well, and 100,000 cells/well, with two wells plated per cell density (FIG. 15). For each cell density, one well received 100 μM BVdU, and the other an equivalent amount of DMSO. Cells were split and re-seeded every 72 hours, to preserve cell density, and analyzed by flow cytometry to quantify the fraction of GFP and Tomato-labeled cells.

[2] = tested on: DCK-IKZF1-IRES-GFP in 293T cells; assay: Pilot drug screen, up assay, 384 well, GFP fluorescence converted to Z-statistic; format: cell-based; conditions: ~25 μM library drug, BVdU Day 1, read Day 5, FIG. 24
Method: Columns 1, 23, and 24 of the plate shown in FIG. 23 (right) were treated with DMSO, Pomalidomide, and Dipyridamole, respectively, while each well in Columns 2-22 was treated with an individual drug (concentration=˜25 μM) from a library of approximately 550 bioactive chemicals. On Day 1, Column 1 was treated with DMSO, and Columns 2-24 were treated with BVdU. On Day 5, GFP fluorescence in each well was quantified using an Acumen Laser Cytometer.

DCK-IKZF1-IRES-GFP = assay: Same-well assay, 1:1 mixture of DCK-IRES-Tomato and DCK-IKZF1-IRES-GFP 293T stables, GFP/Tomato ratio; format: cell-based; conditions: BVdU exposure, FIG. 28
Method: However, exposure of the cells to Pomalidomide and subsequent BVdU exposure specifically rescues the DCK-IKZF1-IRES-GFP population and increases the GFP/Tomato ratio.
This assay was deployed in a proof of concept experiment with a small library of ˜88 engineered IMiD derivatives and plated at 10 serial dilutions ranging from 10 μM to 300 pM.

dCK-IKZF3 fusion protein [3] = assay: BVdU sensitivity and pomalidomide rescue, cell count by Vi-Cell, cells expressing dCK-IKZF3 fusion; format: cell-based; conditions: 2 μM pomalidomide, 100 μM BVdU, counted day 5, FIG. 7
Method: (§1) To assess the validity of the proposed positive selection system, a set of experiments was devised according to the technique outlined in FIG. 6. On day −2, 1×10^6 cells were seeded into a 6 cm dish with 4 mL of DMEM culture media. On day −1, 30,000 cells were seeded per well of a 6 well plate in DMEM media, and on day 0, media were replaced with DMEM media supplemented with decreasing concentrations of BVdU, generated by serial dilution. From days 0-4, media were replaced daily, and on day 5, cells were counted by Vi-Cell. For pomalidomide rescue experiments, the cells were seeded as described above, but from day −2 onwards, were maintained in DMEM media supplemented with 2 μM pomalidomide (Selleck Chemicals).

[4] = molecular target: T1, deoxycytidine kinase (dCK) (Homo sapiens, UniProt P27707); assay: BVdU sensitivity and pomalidomide rescue, cell count by Vi-Cell, cells expressing unfused dCK; format: cell-based; conditions: 2 μM pomalidomide, BVdU dose-response, FIG. 8
T1 construct: V5 (only if expressed from the GFP vector); expressed in transfected cells
Method: as §1

dCK-IKZF3 fusion protein [5] = assay: Competition assay, dCK-IKZF3 GFP cells mixed with dCK tdTomato cells, flow cytometry; format: cell-based; conditions: 2 μM pomalidomide plus 100 μM BVdU, 14 days, FIG. 22
From the text: Next, a competition assay was devised using dCK and CK-IKZF constructs (FIG. 21). In these experiments, cells expressing dCK-IKZF fusion protein and GFP were mixed with cells expressing dCK and tdTomato. In the presence of BVdU, cells expressing either construct would be capable of generating the cytotoxic product. However, upon the addition of an IMiD (pomalidomide), dCK-IKZF fusion protein would be destabilized, allowing outgrowth of GFP+ cells. dCK-IKZF3 cells labeled with GFP were mixed with dCK cells labeled with tdTomato at a ratio of 1:99 and on day −2, were plated into 6 well plates at 100,000 cells/well in triplicate. On Day −1, the “Mock” and “BVdU” wells were treated with DMSO, and the “pomalidomide” well was treated with 2 μM pomalidomide. On day 0, the “Mock” well was treated with DMSO, while the “BVdU” well was treated with 100 μM BVdU, and the “pomalidomide” well received 2 μM pomalidomide and 100 μM BvDU. Cells were split, re-seeded to maintain cell density, treated with the appropriate drugs and analyzed by flow cytometry every 3 days.

[6] = tested on: DCK-IKZF1-IRES-GFP in 293T cells; assay: Up assay with limited drug library of approximately 700 compounds; format: cell-based; conditions: ~700 compound library, BVdU on Day 2, read Day 5, FIG. 25
Method: For the up assay experiment, 293T cells stably infected to produce DCK-IKZF1-IRES-GFP were seeded in three 384 well plates on Day 0. Each well on each plate received a library drug from a ˜700 compound drug library, and BVdU on Day 2.

[7] = tested on: IKZF3 and IKZF3 fusion proteins; conditions: 2 μM or 20 μM Pomalidomide, FIG. 5
Method: HEK-293FT (Invitrogen) cells were maintained in DMEM medium supplemented with 10% FBS, 100 U/mL Penicillin and 100 μg/mL streptomycin. Stable cell lines were established by lentiviral infection followed by growth in media containing 10 μg/mL blasticidin, followed by fluorescence activated cell sorting to collect GFP-expressing cells.
On day 0, 250,000 cells were seeded into each of three wells of a 6-well plate. […] Cells were washed twice with ice-cold PBS and harvested in EBC Lysis Buffer supplemented with 1× protease inhibitor (Roche). Whole cell extracts were resolved by SDS-PAGE, transferred onto a nitrocellulose membrane, and probed with indicated primary antibodies.

[8] = molecular target: T2, IKZF1-Firefly luciferase protein in 293T cells (UniProt P08659+Q13422+Q96SW2); assay: Down assay, Firefly/Renilla luciferase ratio; format: cell-based; conditions: read Day 5, FIG. 26
T2 construct: expressed in transfected cells; host or cells: 293T, stably infected
Method: A down assay experiment was conducted in parallel with the up assay experiment. For the down assay experiment, 293T cells stably infected to produce the IKZF1-Firefly luciferase protein as well as the Renilla luciferase protein from a single mRNA transcript were treated as described in the “Up” Assay. On Day 5, for each plate, Firefly and Renilla luciferase signals were quantified, and the Firefly/Renilla ratio calculated for each well and converted to a Z-statistic and plotted (FIG. 26). The hits noted in the “Up Assay” have been labeled in FIG. 25 and FIG. 26 to allow for comparison between the two assays.

T2 sequence (Q13422+P08659 fused): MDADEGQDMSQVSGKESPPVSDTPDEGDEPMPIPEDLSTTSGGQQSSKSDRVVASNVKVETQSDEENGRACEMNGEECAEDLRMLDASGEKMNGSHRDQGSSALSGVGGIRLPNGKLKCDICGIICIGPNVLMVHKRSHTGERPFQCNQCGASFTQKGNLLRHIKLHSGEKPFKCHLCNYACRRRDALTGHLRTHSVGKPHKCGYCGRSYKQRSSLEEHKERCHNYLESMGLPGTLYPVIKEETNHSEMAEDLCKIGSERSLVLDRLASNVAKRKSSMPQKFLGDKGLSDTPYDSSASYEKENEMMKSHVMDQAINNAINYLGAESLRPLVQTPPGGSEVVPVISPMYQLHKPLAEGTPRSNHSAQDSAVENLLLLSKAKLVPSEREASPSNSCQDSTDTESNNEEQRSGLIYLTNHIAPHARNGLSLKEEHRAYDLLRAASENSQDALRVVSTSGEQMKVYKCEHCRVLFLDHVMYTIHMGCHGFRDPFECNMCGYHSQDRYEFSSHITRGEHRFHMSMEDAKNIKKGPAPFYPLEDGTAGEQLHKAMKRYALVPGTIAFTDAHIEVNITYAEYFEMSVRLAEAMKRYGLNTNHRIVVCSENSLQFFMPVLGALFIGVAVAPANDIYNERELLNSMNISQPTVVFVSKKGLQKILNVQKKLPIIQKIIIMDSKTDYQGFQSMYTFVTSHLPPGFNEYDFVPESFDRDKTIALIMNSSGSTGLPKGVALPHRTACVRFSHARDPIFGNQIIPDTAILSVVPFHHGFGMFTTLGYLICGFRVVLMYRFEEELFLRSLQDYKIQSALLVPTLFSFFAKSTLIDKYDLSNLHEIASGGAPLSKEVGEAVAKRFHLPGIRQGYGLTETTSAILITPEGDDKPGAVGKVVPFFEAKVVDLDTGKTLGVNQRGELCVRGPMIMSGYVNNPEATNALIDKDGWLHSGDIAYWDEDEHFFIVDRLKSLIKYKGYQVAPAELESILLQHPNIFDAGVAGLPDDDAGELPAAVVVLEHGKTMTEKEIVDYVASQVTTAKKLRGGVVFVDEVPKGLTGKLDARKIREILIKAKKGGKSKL
T2 sequence (Q96SW2 whole entry): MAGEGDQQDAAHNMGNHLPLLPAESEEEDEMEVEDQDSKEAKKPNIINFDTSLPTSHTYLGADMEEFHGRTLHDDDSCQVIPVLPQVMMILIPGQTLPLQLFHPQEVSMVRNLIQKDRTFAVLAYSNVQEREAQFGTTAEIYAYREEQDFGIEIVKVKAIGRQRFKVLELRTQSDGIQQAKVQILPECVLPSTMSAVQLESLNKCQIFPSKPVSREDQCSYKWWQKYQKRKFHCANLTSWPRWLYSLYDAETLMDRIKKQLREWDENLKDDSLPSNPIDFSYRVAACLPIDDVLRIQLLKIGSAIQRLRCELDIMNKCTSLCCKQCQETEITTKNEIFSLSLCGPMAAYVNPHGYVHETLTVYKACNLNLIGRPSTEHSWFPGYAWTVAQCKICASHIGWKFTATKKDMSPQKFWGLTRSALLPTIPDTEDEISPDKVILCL
T2 sequence (Q16531 whole entry partner): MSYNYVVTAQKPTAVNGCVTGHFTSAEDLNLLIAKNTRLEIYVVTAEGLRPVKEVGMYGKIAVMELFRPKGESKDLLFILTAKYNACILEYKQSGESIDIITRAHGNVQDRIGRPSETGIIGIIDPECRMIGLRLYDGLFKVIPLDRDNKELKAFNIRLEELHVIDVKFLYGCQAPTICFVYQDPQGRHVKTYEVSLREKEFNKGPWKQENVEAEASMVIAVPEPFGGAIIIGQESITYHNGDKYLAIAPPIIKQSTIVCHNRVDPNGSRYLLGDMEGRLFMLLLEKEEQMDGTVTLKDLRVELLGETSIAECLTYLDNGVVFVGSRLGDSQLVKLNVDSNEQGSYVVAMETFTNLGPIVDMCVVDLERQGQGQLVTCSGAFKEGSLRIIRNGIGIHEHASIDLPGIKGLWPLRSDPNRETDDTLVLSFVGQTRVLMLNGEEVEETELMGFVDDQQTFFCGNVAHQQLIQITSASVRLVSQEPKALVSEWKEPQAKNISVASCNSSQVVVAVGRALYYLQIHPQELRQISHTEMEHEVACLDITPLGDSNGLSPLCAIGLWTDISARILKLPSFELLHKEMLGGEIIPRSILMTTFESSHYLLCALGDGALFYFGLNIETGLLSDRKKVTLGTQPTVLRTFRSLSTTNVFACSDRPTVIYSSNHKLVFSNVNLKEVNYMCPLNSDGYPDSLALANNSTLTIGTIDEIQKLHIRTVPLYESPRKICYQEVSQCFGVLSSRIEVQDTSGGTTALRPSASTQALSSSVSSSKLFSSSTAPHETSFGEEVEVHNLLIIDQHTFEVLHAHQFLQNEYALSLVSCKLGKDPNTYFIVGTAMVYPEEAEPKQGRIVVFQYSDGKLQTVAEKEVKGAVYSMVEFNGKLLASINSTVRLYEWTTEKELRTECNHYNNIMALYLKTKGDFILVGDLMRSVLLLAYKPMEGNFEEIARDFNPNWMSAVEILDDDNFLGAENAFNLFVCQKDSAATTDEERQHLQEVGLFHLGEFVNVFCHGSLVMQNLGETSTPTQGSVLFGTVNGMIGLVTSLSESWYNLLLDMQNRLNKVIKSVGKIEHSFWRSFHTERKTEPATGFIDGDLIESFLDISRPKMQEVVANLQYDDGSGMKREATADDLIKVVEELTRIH
T1 sequence (P27707 whole entry, species assumed, the tested form may be a part): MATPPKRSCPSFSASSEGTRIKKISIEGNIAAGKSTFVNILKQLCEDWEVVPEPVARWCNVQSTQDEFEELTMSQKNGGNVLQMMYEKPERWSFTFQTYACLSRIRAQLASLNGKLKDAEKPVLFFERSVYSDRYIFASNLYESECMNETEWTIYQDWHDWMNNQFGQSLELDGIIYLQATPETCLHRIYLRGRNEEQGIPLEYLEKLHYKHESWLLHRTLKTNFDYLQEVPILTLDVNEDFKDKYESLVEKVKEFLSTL

Question: For `O=c1[nH]c(=O)n([C@H]2C[C@H](O)[C@@H](CO)O2)cc1/C=C/Br` [BVdU, bromovinyl-deoxyuridine], which “EV-GFP cells as fraction of the cell mixture” value ([1]; day 3) is on record?
Answer: Its value is 29%.

Question: And the “EV-GFP cells as fraction of the cell mixture” value ([1]; day 7)?
Answer: The value was 88%.

Question: Which “Hit classification in pilot up-assay screen (GFP Z-statistic)” value [2] does the source give for `OCCN(CCO)c1nc(N2CCCCC2)c2nc(N(CCO)CCO)nc(N3CCCCC3)c2n1` [Dipyridamole, dipyridamole] here?
Answer: Its value is “non-specific hits”.

Question: And the “Classification by GFP and GFP/Tomato ratio in the same well” value (DCK-IKZF1-IRES-GFP)?
Answer: Its value is “assay positive”.

Question: `Nc1cccc2c1C(=O)N(C1CCC(=O)NC1=O)C2=O` (stereo not shown) [Pomalidomide, pomalidomide] was tested. Which “Rescue of cell viability from BVdU in cells expressing the fusion construct (CK-IKZF+Pom)” value (dCK-IKZF3 fusion protein [3]) did it give?
Answer: Its value is “partial rescue and cell growth”.

Question: And the “Rescue from BVdU in cells expressing enzyme only (DCK+Pom)” value [4]?
Answer: The value was “rescue did not occur”.

Question: What about the “Outgrowth of GFP+ (dCK-IKZF3) cells from 1% initial population” value (dCK-IKZF3 fusion protein [5]) of the same compound?
Answer: Its value is “allowed for outgrowth of GFP+cells”.

Question: And the “Hit classification in pilot up-assay screen (GFP Z-statistic)” value [2]?
Answer: Its value is “true-positive hits”.

Question: What about the “Hit classification in up assay (GFP Z-statistic)” value [6] of the same compound?
Answer: The value was “true-positive hits”.

Question: What about the “Classification by GFP and GFP/Tomato ratio in the same well” value (DCK-IKZF1-IRES-GFP) of the same compound?
Answer: The value was “true positive”.

Question: And the “Cellular levels of IKZF3 and IKZF3 fusion proteins” value [7]?
Answer: The value was “highly sensitive”.

Question: Which results are given for `Cc1cn([C@H]2C[C@H](O)[C@@H](CO)O2)c(=O)[nH]c1=O` [Thymidine]?
Answer: Hit classification in up assay (GFP Z-statistic) [6]: assay positive; Hit classification in down assay (Firefly/Renilla ratio Z-statistic) [8]: does not score
